Assay [1] is described as follows: Antifungal activity against Scedosporium aurantiacum bronchial aspirate isolate CNM-CM-4183 at 48 hrs. It counts as functional.
In a further assay the test system is Scedosporium apiospermum. Briefly: Antifungal activity against Scedosporium apiospermum isolates at 48 hrs.
Assay [2] in a line: Antifungal activity against Scedosporium aurantiacum sputum isolate CNM-CM-2631 at 48 hrs. The assay is classed as functional.
The subject of assay [3] is Scedosporium aurantiacum. As to the kind of experiment: Antifungal activity against Scedosporium aurantiacum corneal isolate CNM-CM-2923 at 48 hrs. The assay is classed as functional. The settings on record: Cornea.
Assay [4] concerns Scedosporium aurantiacum. As to the kind of experiment: Antifungal activity against Scedosporium aurantiacum ear swab isolate CNM-CM-2846 at 48 hrs. The assay is classed as functional.

Structures are written as SMILES. In brackets after ≈: the same amount, converted by molar mass.

Our source for the MIC values is ChEMBL document CHEMBL1142168, “Prevalence and susceptibility testing of new species of pseudallescheria and scedosporium in a collection of clinical mold isolates” (2007).

As for `C[C@@H]1[C@H](O)[C@@H](C)/C=C/C=C/C=C/C=C/C=C/C=C/C=C/[C@H](O[C@@H]2O[C@H](C)[C@@H](O)[C@H](N)[C@@H]2O)C[C@@H]2O[C@](O)(C[C@@H](O)C[C@@H](O)[C@H](O)CC[C@@H](O)C[C@@H](O)CC(=O)O[C@H]1C)C[C@H](O)[C@H]2C(=O)O` [AMPHOTERICIN B], the MIC was 8 µg/mL (≈ 8.66 µM) in assay [1]; 0.25 µg/mL (≈ 0.271 µM) against Scedosporium apiospermum; 4 µg/mL (≈ 4.33 µM) in assay [2]; 8 µg/mL (≈ 8.66 µM) in the assay with Scedosporium aurantiacum [3]; 16 µg/mL (≈ 17.3 µM) against Scedosporium aurantiacum [4].
On to `CCC(C)n1ncn(-c2ccc(N3CCN(c4ccc(OCC5COC(Cn6cncn6)(c6ccc(Cl)cc6Cl)O5)cc4)CC3)cc2)c1=O` (stereo not given) [ITRACONAZOLE], for which the minimum inhibitory concentration (MIC) in assay [1] is 16 µg/mL (≈ 22.7 µM); in the assay on Scedosporium apiospermum it was 0.25 µg/mL (≈ 0.354 µM); in assay [2], 2 µg/mL (≈ 2.83 µM); with Scedosporium aurantiacum [3] it was 16 µg/mL (≈ 22.7 µM); with Scedosporium aurantiacum [4], 8 µg/mL (≈ 11.3 µM).
With `C[C@@H](c1ncncc1F)[C@](O)(Cn1cncn1)c1ccc(F)cc1F` [VORICONAZOLE], the minimal inhibitory concentration (MIC) is 0.5 µg/mL (≈ 1.43 µM) in assay [1]; 0.125 µg/mL (≈ 0.358 µM) in the assay on Scedosporium apiospermum; 0.5 µg/mL (≈ 1.43 µM) in assay [2]; 16 µg/mL (≈ 45.8 µM) against Scedosporium aurantiacum [3]; 1 µg/mL (≈ 2.86 µM) with Scedosporium aurantiacum [4].
